Results taken from patent US6818780B2, “P-hydroxyphenyl propionic acid derivatives as antiproliferative agents” (Consejo Superior de Investigaciones Cientificas, priority 2000, dated 2004).

Test system: human peripheral blood mononuclear cells (CMSP)
Experiment: Test on lymphocyte proliferation: human peripheral blood mononuclear cells (3H-thymidine incorporation), with or without rhIL-2
Format: cell-based
Settings: 5 days; for Proliferation of human peripheral blood mononuclear cells, Con A 2 μg/ml (cpm ± DS) / Proliferation of human peripheral blood mononuclear cells, Medium (cpm ± DS) / Proliferation of human peripheral blood mononuclear cells, PHA 10 μg/ml (cpm ± DS) / Proliferation of human peripheral blood mononuclear cells, aCD3 5 μg/ml (cpm ± DS) / Proliferation of human peripheral blood mononuclear cells, aCD3 + Con A (cpm ± DS) / Proliferation of human peripheral blood mononuclear cells, aCD3 + PHA (cpm ± DS): no rhIL-2; for Proliferation of human peripheral blood mononuclear cells in the presence of rhIL-2, Con A 2 μg/ml (cpm ± DS) / Proliferation of human peripheral blood mononuclear cells in the presence of rhIL-2, Medium (cpm ± DS) / Proliferation of human peripheral blood mononuclear cells in the presence of rhIL-2, PHA 10 μg/ml (cpm ± DS) / Proliferation of human peripheral blood mononuclear cells in the presence of rhIL-2, aCD3 5 μg/ml (cpm ± DS) / Proliferation of human peripheral blood mononuclear cells in the presence of rhIL-2, aCD3 + Con A (cpm ± DS) / Proliferation of human peripheral blood mononuclear cells in the presence of rhIL-2, aCD3 + PHA (cpm ± DS): rhIL-2 100 UI/ml
From the text: Tests on Human Peripheral Blood Mononuclear Cells Material and Methods:
In order to study more deeply the effects of lactone on cell proliferation, we checked whether the effects described in the above section on cells of murine origin were specific to the cell type and the species or whether, on the other hand, these effects were xeno-independent. For this, we purified human peripheral blood mononuclear cells from healthy controls and we proceeded to study the possible effects of inhibition on the proliferative activity of peripheral blood mononuclear cells (CMSP) from humans, induced by different mitogenic agents acting alone and/or in costimulation with other mitogens and in the presence or absence of recombinant human interleukin 2 (rhIL-2).
Mitogens: Phytohaemaglutinin M (PHA) (Difco Lab., Detroit, Mich., USA), Concanavalin A (Con A, 2 μg/ml, Sigma Chemical Co., Mich., USA), Immobilised anti-CD3 (OKT3, 5 μg/ml, Ortho-mune, Orthodiagnostic System) and rhIL-2 (100 IU/ml, Hoffman-La Roche, N.J., USA).
All the reagents included in these tests were diluted in RPMI 1640 culture medium (Whitaker Bioproducts, Walkersville, USA) supplemented with 10% of decomplemented foetal calf serum (Biochrom K G, Berlin), L-glutamin (2 mM, Biochrom K G), Hepes (25 mM, Biochrom K G) and antibiotic (1% penicillin streptomycin, Difco Lab, Detroit, Mich., USA).
Also, all the mitogens were optimised in a dose response way in order to obtaining the maximum proliferative response after 5 days of culture.
Venous blood: The CMSP were obtained from venous blood extracted by antecubital venous puncture. 50 ml of blood were extracted to which were added 50 U of calcic heparin and the mixture was diluted 1/1 (vol/vol) with PSS.
Human mononucleated cells: In order to isolate the CMSP they were proceeded to be separated from the rest of the blood components by means of the formation of a density gradient on Ficoll. The cells thus obtained are resuspended in PSS and centrifuged at 400×g for 10 minutes (washing process) and then resuspended in PSS. This operation is repeated three times. In the last of them, PSS is replaced with complete medium.
General culture conditions: All cell cultures were developed under conditions of sterility in a vertical laminar flow chamber, using single-use sterile materials or materials sterilised in an autoclave or with ethylene oxide. The cultures were conserved in a stove kept at a temperature of 37° C., in an atmosphere with 5% CO2 and relative humidity of 95%. In the various experiments performed, the purified CMSP cell preparations were incubated in sterile dishes with 96 wells at concentrations of 5×10^4 cells/well (200 μl) in the presence of different concentrations of different mitogens for 5 days.
The method used for quantifying the cell proliferation was analysis of the incorporation of ^3H-thymidine (^3H-T) into DNA synthesised de novo, detecting the emission of β radiation from the dry extracts of cell cultures to which the tritiated base had been added before its finalisation and collection. The synthesis of DNA was done in triplicate on sterile dishes with 96 flat-bottom wells.
From 20 to 24 hour prior to terminating the cell culture, 1 μCi of ^3H-T was added to each well containing medium; the cultures were gathered by suction through a glass filter, using a Skatron culture collector for this.
The synthesis of DNA has been expressed in counts per minute (cpm). Each test was conducted in triplicate, with those data having a variability greater than 10% compared to the mean of the triplicate being rejected, since they could indicate a technical error or contamination in the culture. The cultures were carried out at a constant cell volume per well, as well as at a constant volume of 200 μl.
Negative Control: Cells in the Presence of Complete Culture Medium
Positive Control: Stimulation of Cells without the Presence of Lactone […]

Structure (SMILES): C=C1C(=O)OC(CCc2ccc(OC)cc2)C1C (stereo not shown) [lactone]
- Proliferation of human peripheral blood mononuclear cells, Con A 2 μg/ml (cpm ± DS) (Lactone 0.0001 μg/ml): 75329 ± 9144 cpm
- Proliferation of human peripheral blood mononuclear cells, Medium (cpm ± DS) (Lactone 0.0001 μg/ml): 3175 ± 1574 cpm
- Proliferation of human peripheral blood mononuclear cells, PHA 10 μg/ml (cpm ± DS) (Lactone 0.0001 μg/ml): 76612 ± 15020 cpm
- Proliferation of human peripheral blood mononuclear cells, aCD3 5 μg/ml (cpm ± DS) (Lactone 0.0001 μg/ml): 44721 ± 4082 cpm
- Proliferation of human peripheral blood mononuclear cells, aCD3 + Con A (cpm ± DS) (Lactone 0.0001 μg/ml): 115090 ± 4133 cpm
- Proliferation of human peripheral blood mononuclear cells, aCD3 + PHA (cpm ± DS) (Lactone 0.0001 μg/ml): 105395 ± 375 cpm
- Proliferation of human peripheral blood mononuclear cells in the presence of rhIL-2, Con A 2 μg/ml (cpm ± DS) (Lactone 0.0001 μg/ml): 96972 ± 18274 cpm
- Proliferation of human peripheral blood mononuclear cells in the presence of rhIL-2, Medium (cpm ± DS) (Lactone 0.0001 μg/ml): 56451 ± 4965 cpm
- Proliferation of human peripheral blood mononuclear cells in the presence of rhIL-2, PHA 10 μg/ml (cpm ± DS) (Lactone 0.0001 μg/ml): 130524 ± 8929 cpm
- Proliferation of human peripheral blood mononuclear cells in the presence of rhIL-2, aCD3 5 μg/ml (cpm ± DS) (Lactone 0.0001 μg/ml): 87091 ± 7078 cpm
- Proliferation of human peripheral blood mononuclear cells in the presence of rhIL-2, aCD3 + Con A (cpm ± DS) (Lactone 0.0001 μg/ml): 154981 ± 15723 cpm
- Proliferation of human peripheral blood mononuclear cells in the presence of rhIL-2, aCD3 + PHA (cpm ± DS) (Lactone 0.0001 μg/ml): 133621 ± 12440 cpm
- Proliferation of human peripheral blood mononuclear cells, Con A 2 μg/ml (cpm ± DS) (Lactone 0.01 μg/ml): 55503 ± 9023 cpm
- Proliferation of human peripheral blood mononuclear cells, Medium (cpm ± DS) (Lactone 0.01 μg/ml): 2867 ± 1527 cpm
- Proliferation of human peripheral blood mononuclear cells, PHA 10 μg/ml (cpm ± DS) (Lactone 0.01 μg/ml): 71092 ± 3555 cpm
- Proliferation of human peripheral blood mononuclear cells, aCD3 5 μg/ml (cpm ± DS) (Lactone 0.01 μg/ml): 40378 ± 219 cpm
- Proliferation of human peripheral blood mononuclear cells, aCD3 + Con A (cpm ± DS) (Lactone 0.01 μg/ml): 93139 ± 3070 cpm
- Proliferation of human peripheral blood mononuclear cells, aCD3 + PHA (cpm ± DS) (Lactone 0.01 μg/ml): 67011 ± 8270 cpm
- Proliferation of human peripheral blood mononuclear cells in the presence of rhIL-2, Con A 2 μg/ml (cpm ± DS) (Lactone 0.01 μg/ml): 54196 ± 80 cpm
- Proliferation of human peripheral blood mononuclear cells in the presence of rhIL-2, Medium (cpm ± DS) (Lactone 0.01 μg/ml): 42568 ± 8631 cpm
- Proliferation of human peripheral blood mononuclear cells in the presence of rhIL-2, PHA 10 μg/ml (cpm ± DS) (Lactone 0.01 μg/ml): 106754 ± 698 cpm
- Proliferation of human peripheral blood mononuclear cells in the presence of rhIL-2, aCD3 5 μg/ml (cpm ± DS) (Lactone 0.01 μg/ml): 39771 ± 3258 cpm
- Proliferation of human peripheral blood mononuclear cells in the presence of rhIL-2, aCD3 + Con A (cpm ± DS) (Lactone 0.01 μg/ml): 130949 ± 16623 cpm
- Proliferation of human peripheral blood mononuclear cells in the presence of rhIL-2, aCD3 + PHA (cpm ± DS) (Lactone 0.01 μg/ml): 94165 ± 15647 cpm
- Proliferation of human peripheral blood mononuclear cells, Con A 2 μg/ml (cpm ± DS) (Lactone 1 μg/ml): 13294 ± 3395 cpm
- Proliferation of human peripheral blood mononuclear cells, Medium (cpm ± DS) (Lactone 1 μg/ml): 1805 ± 1870 cpm
- Proliferation of human peripheral blood mononuclear cells, PHA 10 μg/ml (cpm ± DS) (Lactone 1 μg/ml): 25118 ± 6642 cpm
- Proliferation of human peripheral blood mononuclear cells, aCD3 5 μg/ml (cpm ± DS) (Lactone 1 μg/ml): 1286 ± 255 cpm
- Proliferation of human peripheral blood mononuclear cells, aCD3 + Con A (cpm ± DS) (Lactone 1 μg/ml): 829 ± 484 cpm
- Proliferation of human peripheral blood mononuclear cells, aCD3 + PHA (cpm ± DS) (Lactone 1 μg/ml): 8689 ± 5361 cpm
- Proliferation of human peripheral blood mononuclear cells in the presence of rhIL-2, Con A 2 μg/ml (cpm ± DS) (Lactone 1 μg/ml): 71210 ± 5211 cpm
- Proliferation of human peripheral blood mononuclear cells in the presence of rhIL-2, Medium (cpm ± DS) (Lactone 1 μg/ml): 9548 ± 808 cpm
- Proliferation of human peripheral blood mononuclear cells in the presence of rhIL-2, PHA 10 μg/ml (cpm ± DS) (Lactone 1 μg/ml): 110507 ± 698 cpm
- Proliferation of human peripheral blood mononuclear cells in the presence of rhIL-2, aCD3 5 μg/ml (cpm ± DS) (Lactone 1 μg/ml): 36280 ± 77 cpm
- Proliferation of human peripheral blood mononuclear cells in the presence of rhIL-2, aCD3 + Con A (cpm ± DS) (Lactone 1 μg/ml): 66429 ± 9241 cpm
- Proliferation of human peripheral blood mononuclear cells in the presence of rhIL-2, aCD3 + PHA (cpm ± DS) (Lactone 1 μg/ml): 88220 ± 3174 cpm
- Proliferation of human peripheral blood mononuclear cells, Con A 2 μg/ml (cpm ± DS) (Lactone 10 μg/ml): 48 ± 7 cpm
- Proliferation of human peripheral blood mononuclear cells, Medium (cpm ± DS) (Lactone 10 μg/ml): 72 ± 72 cpm
- Proliferation of human peripheral blood mononuclear cells, PHA 10 μg/ml (cpm ± DS) (Lactone 10 μg/ml): 71 ± 14 cpm
- Proliferation of human peripheral blood mononuclear cells, aCD3 5 μg/ml (cpm ± DS) (Lactone 10 μg/ml): 119 ± 7 cpm
